From patent US11505533B2, “Metabolically stable N-acylaminooxadiazoles useful as antibacterial agents” (MICROBIOTIX, INC., priority 2017, dated 2022)
Where two headings read alike, the source gives them in different places.

Assays:
Adrenergic α1B = target: T1, Adrenergic α1B (Rattus norvegicus, UniProt P15823); assay type: binding; conditions: for % Inhibition: 10 μM
T1 sequence (P15823 1-515): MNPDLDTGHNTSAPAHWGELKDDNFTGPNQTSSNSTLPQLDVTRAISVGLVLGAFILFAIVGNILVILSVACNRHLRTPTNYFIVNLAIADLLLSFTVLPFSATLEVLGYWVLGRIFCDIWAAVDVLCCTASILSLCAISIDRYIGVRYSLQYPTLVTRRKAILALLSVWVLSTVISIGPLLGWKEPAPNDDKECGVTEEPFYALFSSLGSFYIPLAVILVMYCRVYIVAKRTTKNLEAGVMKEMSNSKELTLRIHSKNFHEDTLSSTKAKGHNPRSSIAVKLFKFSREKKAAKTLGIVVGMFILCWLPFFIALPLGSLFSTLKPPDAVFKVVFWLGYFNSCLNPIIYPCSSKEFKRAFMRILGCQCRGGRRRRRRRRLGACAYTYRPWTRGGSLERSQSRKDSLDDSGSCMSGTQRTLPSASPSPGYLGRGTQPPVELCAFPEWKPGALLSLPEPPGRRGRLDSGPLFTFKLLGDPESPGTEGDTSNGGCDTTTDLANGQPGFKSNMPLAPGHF

Cannabinoid CB1 = Cannabinoid CB1 (Homo sapiens, UniProt P21554); assay type: binding; conditions: for % Inhibition: 10 μM
Chain of Cannabinoid CB1 (P21554 whole entry): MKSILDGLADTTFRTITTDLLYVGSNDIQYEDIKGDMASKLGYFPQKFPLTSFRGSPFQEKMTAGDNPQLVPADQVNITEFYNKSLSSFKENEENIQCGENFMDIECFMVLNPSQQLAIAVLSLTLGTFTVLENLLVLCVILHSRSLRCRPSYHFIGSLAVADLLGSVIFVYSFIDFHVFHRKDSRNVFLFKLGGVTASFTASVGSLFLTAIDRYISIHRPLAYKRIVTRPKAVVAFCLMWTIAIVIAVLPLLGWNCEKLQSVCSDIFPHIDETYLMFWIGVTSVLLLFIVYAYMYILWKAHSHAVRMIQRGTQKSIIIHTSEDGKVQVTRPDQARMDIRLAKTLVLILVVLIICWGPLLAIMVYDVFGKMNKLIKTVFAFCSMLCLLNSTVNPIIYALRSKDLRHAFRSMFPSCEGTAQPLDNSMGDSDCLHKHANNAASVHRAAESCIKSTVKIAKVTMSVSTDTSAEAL

Dopamine D1 = Dopamine D1 (Homo sapiens, UniProt P21728); assay type: binding; conditions: for % Inhibition: 10 μM
Chain of Dopamine D1 (P21728 whole entry): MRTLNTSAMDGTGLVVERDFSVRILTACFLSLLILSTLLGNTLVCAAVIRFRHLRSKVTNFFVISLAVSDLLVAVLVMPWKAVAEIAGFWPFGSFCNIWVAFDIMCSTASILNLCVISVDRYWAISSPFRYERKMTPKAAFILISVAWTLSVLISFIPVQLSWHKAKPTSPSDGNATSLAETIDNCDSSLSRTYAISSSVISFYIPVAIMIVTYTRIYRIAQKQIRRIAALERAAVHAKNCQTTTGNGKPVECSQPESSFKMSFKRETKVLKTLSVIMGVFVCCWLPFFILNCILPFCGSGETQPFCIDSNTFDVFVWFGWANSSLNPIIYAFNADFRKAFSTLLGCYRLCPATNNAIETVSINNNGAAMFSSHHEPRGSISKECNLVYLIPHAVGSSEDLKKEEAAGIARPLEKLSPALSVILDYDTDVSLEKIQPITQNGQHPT

[1] = tested on: GABAA, Flunitrazepam, Central; assay type: binding; conditions: 10 μM; rat
[2] = target: Nicotinic Acetylcholine a1, Bungarotoxin (Homo sapiens, UniProt P02708+P07510+Q07001); assay type: binding; conditions: for % Inhibition: 10 μM, human
Rolipram = assay type: binding; conditions: 10 μM; rat
[3] = target: Seritonin (5-Hydroxytryptamine) 5-HT2B (Homo sapiens, UniProt P41595); assay type: binding; conditions: for % Inhibition: 10 μM
Chain of Seritonin (5-Hydroxytryptamine) 5-HT2B (P41595 whole entry): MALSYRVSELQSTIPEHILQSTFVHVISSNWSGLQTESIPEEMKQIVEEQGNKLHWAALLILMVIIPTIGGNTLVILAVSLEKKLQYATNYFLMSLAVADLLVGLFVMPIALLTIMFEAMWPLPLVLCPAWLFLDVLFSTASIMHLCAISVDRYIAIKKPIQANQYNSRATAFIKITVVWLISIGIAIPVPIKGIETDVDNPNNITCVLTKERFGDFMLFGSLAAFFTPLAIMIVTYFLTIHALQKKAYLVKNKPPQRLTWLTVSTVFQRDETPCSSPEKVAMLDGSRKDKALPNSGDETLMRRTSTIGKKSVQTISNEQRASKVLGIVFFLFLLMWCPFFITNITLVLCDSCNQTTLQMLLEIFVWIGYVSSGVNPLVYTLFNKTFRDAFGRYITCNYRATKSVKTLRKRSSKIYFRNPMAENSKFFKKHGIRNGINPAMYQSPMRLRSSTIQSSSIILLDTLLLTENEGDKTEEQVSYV

MRSA strain BAA-1717 = test: Neutropenic murine thigh model; assay type: in vivo, mice; conditions: 25 mg/kg PO once, 2 h after infection; CFU counts 24 hrs after dosing; n=4
CYP450, 1A2 [4] = target: T2, CYP450, 1A2 (Homo sapiens, UniProt P05177); conditions: 10 µM
T2 sequence (P05177 1-516): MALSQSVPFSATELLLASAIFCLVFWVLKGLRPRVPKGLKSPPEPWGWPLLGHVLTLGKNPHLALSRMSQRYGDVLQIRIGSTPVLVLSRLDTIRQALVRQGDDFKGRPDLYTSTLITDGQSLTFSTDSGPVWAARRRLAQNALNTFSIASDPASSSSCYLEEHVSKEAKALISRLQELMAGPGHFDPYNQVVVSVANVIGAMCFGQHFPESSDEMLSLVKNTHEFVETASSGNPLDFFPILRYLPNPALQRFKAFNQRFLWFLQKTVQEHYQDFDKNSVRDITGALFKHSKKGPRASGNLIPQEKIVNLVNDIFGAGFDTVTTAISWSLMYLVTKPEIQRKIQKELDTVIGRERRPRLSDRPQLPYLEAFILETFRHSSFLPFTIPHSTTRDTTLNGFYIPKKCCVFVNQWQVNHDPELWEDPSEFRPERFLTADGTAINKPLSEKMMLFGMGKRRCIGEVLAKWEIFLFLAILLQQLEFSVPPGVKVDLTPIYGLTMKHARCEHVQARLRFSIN

CYP450, 2C19 [5] = target: T3, CYP450, 2C19 (Homo sapiens, UniProt P33261); conditions: 10 µM
T3 sequence (P33261 whole entry): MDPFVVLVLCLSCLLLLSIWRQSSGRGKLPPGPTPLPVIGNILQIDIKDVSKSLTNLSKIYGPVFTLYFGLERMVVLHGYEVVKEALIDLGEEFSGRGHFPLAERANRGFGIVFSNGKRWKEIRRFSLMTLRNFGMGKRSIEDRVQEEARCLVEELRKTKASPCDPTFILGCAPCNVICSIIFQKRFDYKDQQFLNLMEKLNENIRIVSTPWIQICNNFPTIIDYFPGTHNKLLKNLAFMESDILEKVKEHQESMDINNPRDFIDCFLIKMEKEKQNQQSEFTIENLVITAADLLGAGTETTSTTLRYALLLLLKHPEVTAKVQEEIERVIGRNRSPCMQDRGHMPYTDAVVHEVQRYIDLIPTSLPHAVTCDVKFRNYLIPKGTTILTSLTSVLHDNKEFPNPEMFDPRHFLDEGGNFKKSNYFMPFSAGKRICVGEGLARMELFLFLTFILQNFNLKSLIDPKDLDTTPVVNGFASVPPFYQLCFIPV

CYP450, 2C9 [6] = target: T4, CYP450, 2C9 (Homo sapiens, UniProt P11712); conditions: 10 µM
T4 sequence (P11712 whole entry): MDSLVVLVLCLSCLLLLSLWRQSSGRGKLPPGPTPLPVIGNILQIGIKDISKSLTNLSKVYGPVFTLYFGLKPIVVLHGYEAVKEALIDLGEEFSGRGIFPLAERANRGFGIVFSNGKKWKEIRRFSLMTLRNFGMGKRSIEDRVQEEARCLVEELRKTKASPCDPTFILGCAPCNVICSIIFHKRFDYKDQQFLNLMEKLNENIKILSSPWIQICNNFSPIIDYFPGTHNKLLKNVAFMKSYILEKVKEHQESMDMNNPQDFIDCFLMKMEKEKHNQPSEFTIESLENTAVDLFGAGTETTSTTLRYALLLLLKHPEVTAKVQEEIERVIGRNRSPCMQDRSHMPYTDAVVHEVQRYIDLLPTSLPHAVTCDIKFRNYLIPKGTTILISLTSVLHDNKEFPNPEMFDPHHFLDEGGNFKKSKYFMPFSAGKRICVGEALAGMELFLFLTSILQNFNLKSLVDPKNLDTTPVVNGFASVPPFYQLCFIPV

CYP450, 2D6 [7] = target: T5, CYP450, 2D6 (Homo sapiens, UniProt P10635); conditions: 10 µM
T5 sequence (P10635 whole entry): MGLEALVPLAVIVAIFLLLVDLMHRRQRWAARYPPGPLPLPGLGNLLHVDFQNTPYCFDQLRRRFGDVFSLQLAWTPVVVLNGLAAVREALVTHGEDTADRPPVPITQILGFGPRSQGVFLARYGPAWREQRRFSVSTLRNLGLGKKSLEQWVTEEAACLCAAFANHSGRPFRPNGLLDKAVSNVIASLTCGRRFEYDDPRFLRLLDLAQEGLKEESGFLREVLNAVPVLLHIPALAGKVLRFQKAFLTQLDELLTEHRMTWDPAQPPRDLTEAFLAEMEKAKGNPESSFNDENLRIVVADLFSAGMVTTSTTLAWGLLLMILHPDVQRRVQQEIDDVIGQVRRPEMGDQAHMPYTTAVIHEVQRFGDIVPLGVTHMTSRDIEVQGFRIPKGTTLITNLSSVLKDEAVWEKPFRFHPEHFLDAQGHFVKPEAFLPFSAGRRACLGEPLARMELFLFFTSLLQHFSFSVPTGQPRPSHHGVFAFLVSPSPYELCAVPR

CYP450, 3A4 [8] = target: T6, CYP450, 3A4 (Homo sapiens, UniProt P08684); conditions: 10 µM
T6 sequence (P08684 whole entry): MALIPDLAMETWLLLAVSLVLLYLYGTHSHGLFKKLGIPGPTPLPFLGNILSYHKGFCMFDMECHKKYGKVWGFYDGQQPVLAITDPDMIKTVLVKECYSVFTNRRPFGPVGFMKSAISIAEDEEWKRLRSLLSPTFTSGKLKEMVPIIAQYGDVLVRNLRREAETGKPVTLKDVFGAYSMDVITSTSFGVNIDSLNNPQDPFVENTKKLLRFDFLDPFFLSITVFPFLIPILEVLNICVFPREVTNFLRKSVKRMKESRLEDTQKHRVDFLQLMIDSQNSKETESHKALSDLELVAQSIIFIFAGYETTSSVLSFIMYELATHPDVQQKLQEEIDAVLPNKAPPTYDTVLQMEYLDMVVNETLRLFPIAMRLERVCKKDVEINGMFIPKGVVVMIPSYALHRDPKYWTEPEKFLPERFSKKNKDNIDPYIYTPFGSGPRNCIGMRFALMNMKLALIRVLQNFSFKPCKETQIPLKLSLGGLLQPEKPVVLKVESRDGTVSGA

Potassium Channel hERG [9] = target: T7, Potassium Channel hERG (Homo sapiens, UniProt Q12809); conditions: 10 µM
T7 sequence (Q12809 whole entry): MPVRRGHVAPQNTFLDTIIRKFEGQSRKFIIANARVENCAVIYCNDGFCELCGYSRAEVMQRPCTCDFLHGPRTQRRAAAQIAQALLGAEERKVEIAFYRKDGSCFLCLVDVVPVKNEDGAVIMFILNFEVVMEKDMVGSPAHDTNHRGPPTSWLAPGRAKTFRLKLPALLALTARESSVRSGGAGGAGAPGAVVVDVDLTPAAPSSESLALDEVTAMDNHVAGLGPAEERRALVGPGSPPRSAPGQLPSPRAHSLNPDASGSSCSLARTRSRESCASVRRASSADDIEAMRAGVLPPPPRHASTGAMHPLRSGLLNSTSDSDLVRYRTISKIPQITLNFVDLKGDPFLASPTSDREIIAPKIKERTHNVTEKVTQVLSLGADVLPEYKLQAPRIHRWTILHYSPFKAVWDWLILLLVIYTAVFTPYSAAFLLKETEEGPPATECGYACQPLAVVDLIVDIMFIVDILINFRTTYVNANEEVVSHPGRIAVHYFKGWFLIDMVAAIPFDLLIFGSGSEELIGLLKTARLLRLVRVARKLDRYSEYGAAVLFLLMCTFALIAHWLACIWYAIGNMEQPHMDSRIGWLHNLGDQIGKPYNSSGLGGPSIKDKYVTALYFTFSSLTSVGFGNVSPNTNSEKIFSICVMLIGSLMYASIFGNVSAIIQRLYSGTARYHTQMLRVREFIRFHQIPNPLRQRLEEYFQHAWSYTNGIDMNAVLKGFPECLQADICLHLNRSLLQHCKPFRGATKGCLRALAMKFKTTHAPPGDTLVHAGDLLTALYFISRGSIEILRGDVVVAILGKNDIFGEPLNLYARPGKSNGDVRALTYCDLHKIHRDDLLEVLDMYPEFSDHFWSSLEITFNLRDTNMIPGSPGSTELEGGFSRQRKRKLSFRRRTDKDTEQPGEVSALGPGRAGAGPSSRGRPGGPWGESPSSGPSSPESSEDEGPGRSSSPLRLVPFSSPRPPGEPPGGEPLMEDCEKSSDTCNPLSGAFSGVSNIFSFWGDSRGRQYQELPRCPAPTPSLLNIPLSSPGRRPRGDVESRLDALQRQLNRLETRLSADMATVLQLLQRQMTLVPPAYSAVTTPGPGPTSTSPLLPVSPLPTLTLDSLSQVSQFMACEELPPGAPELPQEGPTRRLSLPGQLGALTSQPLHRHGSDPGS

[10] = in vivo
CYP1A2 = CYP1A2 (Homo sapiens, UniProt P05177)
CYP2C9 = CYP2C9 (Homo sapiens, UniProt P11712)
CYP2D6 = CYP2D6 (Homo sapiens, UniProt P10635)
Chain of CYP2D6 (P10635 whole entry): as the sequence (P10635 whole entry) above

CYP3A4 = CYP3A4 (Homo sapiens, UniProt P08684)
Chain of CYP3A4 (P08684 whole entry): as the sequence (P08684 whole entry) above

hERG potassium channel = hERG potassium channel (Homo sapiens, UniProt Q12809)
CYP450, 1A2 [11] = target: T2, CYP450, 1A2; conditions: 10 μM
CYP450, 2C19 [12] = target: T3, CYP450, 2C19; conditions: 10 μM
CYP450, 2C9 [13] = target: T4, CYP450, 2C9; conditions: 10 μM
CYP450, 2D6 [14] = target: T5, CYP450, 2D6; conditions: 10 μM
CYP450, 3A4 [15] = target: T6, CYP450, 3A4; conditions: 10 μM
Potassium Channel hERG [16] = target: T7, Potassium Channel hERG; conditions: 10 μM

SMILES	% Inhibition (Adrenergic α1B) [%]	% Inhibition (Cannabinoid CB1) [%]	% Inhibition (Dopamine D1) [%]	% Inhibition [1] [%]	% Inhibition [2] [%]	% Inhibition (Rolipram) [%]	% Inhibition [3] [%]	% Inhibition (CYP450, 1A2 [11]) [%]	% Inhibition (CYP450, 2C19 [12]) [%]	% Inhibition (CYP450, 2C9 [13]) [%]	% Inhibition (CYP450, 2D6 [14]) [%]	% Inhibition (CYP450, 3A4 [15]) [%]	% Inhibition (Potassium Channel hERG [16]) [%]	also measured
O=C(Nc1nnc(-c2ccc(F)cc2)o1)N1CCc2ccccc2C1 [MBX-4132]	21	14	−8	13	0	2	53							drop in CFU/g compared to untreated controls (MRSA strain BAA-1717): > 2 log CFU/g; % Inhibition (CYP450, 1A2 [4]): 9%; % Inhibition (CYP450, 2C19 [5]): 44%; % Inhibition (CYP450, 2C9 [6]): 10%; % Inhibition (CYP450, 2D6 [7]): 10%; % Inhibition (CYP450, 3A4 [8]): 7%; % Inhibition (Potassium Channel hERG [9]): 64%; elevated single dose tolerability [10]: no effects distinct from vehicle controls
O=C(Nc1nnc(-c2ccc(F)cc2)o1)c1ccc(Oc2ccccc2)nc1 [MBX-4237]				25		1								inhibition at 10 µM (Adrenergic α1B): -2%; inhibition at 10 µM (Cannabinoid CB1): 7%; inhibition at 10 µM (Dopamine D1): 7%; inhibition at 10 µM [2]: -8%; inhibition at 10 µM [3]: -4%; inhibition at 10 µM (CYP1A2): 1%; inhibition at 10 µM (CYP2C9): 5%; inhibition at 10 µM (CYP2D6): -4%; inhibition at 10 µM (CYP3A4): 6%; inhibition at 10 µM (hERG potassium channel): 8%
O=C(Nc1nnc(-c2ccc(F)cc2)o1)c1ccc(OC2CCCCC2)cc1 [MBX-4292]	3	11	17	−1	−4	−8	−7	5	9	10	2	4	8	
O=C(Nc1nnc(-c2ccc(F)cc2)o1)N1CC=C(C(F)(F)F)CC1 [MBX-4347]	7	0	5	22	2	−6	−1	2	8	4	9	9	0	
